Reference: ChEMBL document CHEMBL5154636, “Discovery of STAT3 and Histone Deacetylase (HDAC) Dual-Pathway Inhibitors for the Treatment of Solid Cancer” (J Med Chem, 2021)

Tests used:
MDA-MB-231 = assay: Cytotoxicity against human MDA-MB-231 cells assessed as reduction in cell viability incubated for 48 hrs by MTT assay; assay type: functional, cell-based; conditions: MDA-MB-231, 48 h
HCT-116 = assay: Cytotoxicity against human HCT-116 cells assessed as reduction in cell viability incubated for 48 hrs by MTT assay; assay type: functional, cell-based; conditions: HCT-116, 48 h
MCF-10A = assay: Cytotoxicity against human MCF-10 A cells assessed as reduction in cell viability at 32 uM incubated for 48 hrs by MTT assay relative to control; assay type: toxicity, cell-based
[1] = Acute toxicity in po dosed ICR mouse assessed as maximum tolerated dose measured after 7 days; assay type: organism-based; conditions: in vivo, time 7 day
L02 = assay: Cytotoxicity against human L02 cells assessed as reduction in cell viability at 32 uM incubated for 48 hrs by MTT assay relative to control; assay type: toxicity, cell-based; conditions: l02, 48 h

Compound: COc1cc(/C=C/c2ccc(OCc3cccc(C(=O)NO)c3)cc2)cc(OC)c1
- IC50 (MDA-MB-231): 9.22 µM
- IC50 (HCT-116): 13.7 µM

Compound: O=C(CCCCCCC(=O)Nc1ccccc1)NO [VORINOSTAT]
- Activity (MCF-10A): 24%
- MTD at 168 h [1]: > 400 mg/kg
- Activity (L02): 26%

Compound: COc1cc(/C=C/c2ccc(OCCN3CCN(CC(=O)NO)CC3)cc2)cc(OC)c1
- IC50 (MDA-MB-231): 7.42 µM
- IC50 (HCT-116): 8.87 µM

Compound: COc1cc(/C=C/c2ccc(OCc3ccccc3C(=O)NO)cc2)cc(OC)c1
- IC50 (MDA-MB-231): 7.18 µM
- IC50 (HCT-116): 13.9 µM

Compound: COc1cc(/C=C/c2ccc(NCc3ccc(/C=C/C(=O)NO)cc3)cc2)cc(OC)c1
- IC50 (MDA-MB-231): 5.95 µM
- IC50 (HCT-116): 11.2 µM

Compound: COc1cc(/C=C/c2ccc(OCCCCCC(=O)NO)cc2)cc(OC)c1
- IC50 (MDA-MB-231): 3.56 µM
- IC50 (HCT-116): 4.1 µM

Compound: COc1cc(/C=C/c2ccc(O)cc2)cc(OC)c1 [PTEROSTILBENE]
- IC50 (MDA-MB-231): 31.2 µM
- Activity (MCF-10A): Non-Toxic
- MTD at 168 h [1]: > 400 mg/kg
- Activity (L02): Non-Toxic
- IC50 (HCT-116): 34.1 µM

Compound: COc1cc(/C=C/c2ccc(OCCCC(=O)NO)cc2)cc(OC)c1
- IC50 (MDA-MB-231): 3.89 µM
- IC50 (HCT-116): 5.2 µM

Compound: COc1cc(/C=C/c2ccc(OCc3ccc(C(=O)NO)cc3)cc2)cc(OC)c1
- IC50 (MDA-MB-231): 6.88 µM
- IC50 (HCT-116): 10.4 µM

Compound: COc1cc(/C=C/c2ccc(OCCc3cn(CC(=O)NO)nn3)cc2)cc(OC)c1
- IC50 (MDA-MB-231): 6.52 µM
- IC50 (HCT-116): 7.44 µM

Compound: COc1cc(/C=C/c2ccc(OCCCCCCCC(=O)NO)cc2)cc(OC)c1
- IC50 (MDA-MB-231): 5.05 µM
- IC50 (HCT-116): 12.6 µM

Compound: COc1cc(/C=C/c2ccc(OCCCCC(=O)NO)cc2)cc(OC)c1
- IC50 (MDA-MB-231): 4.21 µM
- IC50 (HCT-116): 3.35 µM
